Test results taken from patent US20220073536A1 (Rigel Pharmaceuticals, Inc., priority 2003, published 2022).

Experiments:
[1] = test system: cultured human mast cells (CHMC); test: CHMC low cell density ionomycin activation: tryptase assay; type: cell-based; details: low cell density CHMC, tryptase release, 3 point, read-out: LD Tryptase, CHMC, Iono, 3 pt
[2] = test system: cultured human mast cells (CHMC); test: CHMC low cell density IgE activation: tryptase assay; type: cell-based; details: low cell density CHMC, IgE activation, tryptase release
In short: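 Low-density CHMC, 1000-1500 cells/well in MT; 1 hr 37 °C; anti-IgE challenge 30 min 37 °C; supernatant tryptase via fluorogenic substrate, 30 min RT.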

[3] = 3 point, read-out: LD Tryptase, CHMC, IgE, 3 pt
[4] = 8 point, read-out: LD Tryptase, CHMC, IgE, 8 pt
[5] = Homo sapiens, Mast cell, 3 point, read-out: LD Tryptase, CHMC, IgE, 3 pt
[6] = Homo sapiens, Mast cell, 8 point, read-out: LD Tryptase, CHMC, IgE, 8 pt

IC50 [1] [µM] | IC50 [2, 3] [µM] | IC50 [2, 4] [µM] | IC50 ([1]; Homo sapiens, Mast cell) [µM] | IC50 [2, 5] [µM] | IC50 [2, 6] [µM] | SMILES
> 10 | < 10 | < 10 | – | – | – | CNC(=O)COc1cccc(Nc2ncc(F)c(N(C)c3cc(C)c(Cl)c(C)c3)n2)c1 [Compound 593, N4-(4-Chloro-3,5-dimethylphenyl)-5-fluoro-N4-methyl-N2-[3-(N-methylamino)carbonylmethyleneoxyphenyl]-2,4-pyrimidinediamine]
– | – | – | < 10 | < 10 | < 10 | Cc1cc(N(C)c2nc(Nc3ccc4[nH]ccc4c3)ncc2F)cc(C)c1Cl [Compound 594]
– | – | – | > 10 | > 10 | – | COC(=O)c1cc2cc(Nc3ncc(F)c(N(C)c4cc(C)c(Cl)c(C)c4)n3)ccc2o1 [Compound 595]
– | – | – | > 10 | > 10 | – | Cc1cc(N(C)c2nc(Nc3ccc(-c4ncco4)cc3)ncc2F)cc(C)c1Cl [Compound 596]
– | – | – | > 10 | < 10 | – | Cc1cc(N(C)c2nc(Nc3cccc(-c4cnco4)c3)ncc2F)cc(C)c1Cl [Compound 597]
– | – | – | > 10 | < 10 | – | Cc1cc(N(C)c2nc(Nc3ccc(-c4cnco4)cc3)ncc2F)cc(C)c1Cl [Compound 598]
– | – | – | > 10 | < 10 | – | Cc1cc(N(C)c2nc(Nc3ccc4cc[nH]c4c3)ncc2F)cc(C)c1Cl [Compound 599]
> 10 | < 10 | < 10 | – | – | – | CNC(=O)COc1ccc(Nc2nc(Nc3cc(C)cc(C)c3)ncc2F)cc1Cl [Compound 600, N4-[3-Chloro-4-(N-methylamino)carbonylmethyleneoxyphenyl]-N2-(3,5-dimethylphenyl)-5-fluoro-2,4-pyrimidinediamine]
> 10 | < 10 | < 10 | – | – | – | CNC(=O)COc1ccc(Nc2nc(Nc3cc(OC)cc(OC)c3)ncc2F)cc1Cl [Compound 601, N4-[3-Chloro-4-(N-methylamino)carbonylmethyleneoxyphenyl]-N2-(3,5-dimethoxylphenyl)-5-fluoro-2,4-pyrimidinediamine]
> 10 | < 10 | < 10 | – | – | – | CNC(=O)COc1ccc(Nc2nc(Nc3ccc(OC)c(Cl)c3)ncc2F)cc1Cl [Compound 602, N2-(3-Chloro-4-methoxyphenyl)-N4-[3-chloro-4-(N-methylamino)carbonylmethyleneoxyphenyl]-5-fluoro-2,4-pyrimidinediamine]
> 10 | < 10 | > 10 | – | – | – | CNC(=O)COc1ccc(Nc2nc(Nc3cc(C)c(Cl)c(C)c3)ncc2F)cc1Cl [Compound 603, N2-(4-Chloro-3,5-dimethylphenyl)-N4-[3-chloro-4-(N-methylamino)carbonylmethyleneoxyphenyl]-5-fluoro-2,4-pyrimidinediamine]
– | – | – | > 10 | < 10 | – | Cc1cc(N(C)c2nc(Nc3ccc(-c4cocn4)cc3)ncc2F)cc(C)c1Cl [Compound 604]
> 10 | < 10 | < 10 | – | – | – | CNC(=O)COc1ccc(Nc2nc(Nc3ccc4cc[nH]c4c3)ncc2F)cc1Cl [Compound 605, N4-[3-Chloro-4-(N-methylamino)carbonylmethyleneoxyphenyl]-5-fluoro-N2-(indol-6-yl)-2,4-pyrimidinediamine]
– | – | – | < 10 | < 10 | < 10 | COc1cc(N(C)c2nc(Nc3ccc(-c4cocn4)cc3)ncc2F)ccc1Cl [Compound 606, N4-(4-Chloro-3-methoxyphenyl)-5-fluoro-N4-methyl-N2-[4-(oxazol-4-yl)phenyl]-2,4-pyrimidinediamine]
– | – | – | > 10 | < 10 | < 10 | CNC(=O)c1cc(Nc2ncc(F)c(Nc3ccc(Cl)c(OC)c3)n2)ccc1Cl [Compound 607, N4-(4-Chloro-3-methoxyphenyl)-N2-[4-chloro-3-(N-methylamino)carbonylphenyl]-5-fluoro-2,4-pyrimidinediamine]
> 10 | < 10 | – | – | – | – | CNC(=O)COc1ccc(Nc2nc(Nc3ccc(Cl)c(C(=O)NC)c3)ncc2F)cc1Cl [Compound 608, N4-[3-Chloro-4-(N-methylamino)carbonylmethyleneoxyphenyl]-N2-[4-chloro-3-(N-methylamino)carbonylphenyl]-5-fluoro-2,4-pyrimidinediamine]

IC50 [1] [µM] | IC50 [2, 3] [µM] | IC50 [2, 4] [µM] | IC50 ([1]; Homo sapiens, Mast cell) [µM] | IC50 [2, 5] [µM] | IC50 [2, 6] [µM] | SMILES
– | – | – | > 10 | < 10 | < 10 | CNC(=O)c1cc(Nc2ncc(F)c(Nc3ccc(Cl)c(C(F)(F)F)c3)n2)ccc1Cl [Compound 609]
– | – | – | > 10 | > 10 | – | CNC(=O)c1cc(Nc2ncc(F)c(N(C)c3cc(C)c(Cl)c(C)c3)n2)ccc1Cl [Compound 610, N4-(4-Chloro-3,5-dimethylphenyl)-N2-[4-chloro-3-(N-methylamino)carbonylphenyl]-5-fluoro-N4-methyl-2,4-pyrimidinediamine]
– | – | – | > 10 | < 10 | < 10 | CNC(=O)c1ccc(Nc2ncc(F)c(Nc3ccc(Cl)c(OC)c3)n2)cc1Cl [Compound 611, N4-(4-Chloro-3-methoxyphenyl)-N2-[3-chloro-4-(N-methylamino)carbonylphenyl]-5-fluoro-2,4-pyrimidinediamine]
– | – | – | > 10 | < 10 | < 10 | CNC(=O)c1ccc(Nc2ncc(F)c(Nc3ccc(Cl)c(C(F)(F)F)c3)n2)cc1Cl [Compound 612, N2-[3-Chloro-4-(N-methylamino)carbonylphenyl]-N4-(4-chloro-3-trifluoromethylphenyl)-5-fluoro-2,4-pyrimidinediamine]
– | – | – | > 10 | < 10 | – | CNC(=O)c1ccc(Nc2ncc(F)c(N(C)c3cc(C)c(Cl)c(C)c3)n2)cc1Cl [Compound 613, N4-(4-Chloro-3,5-dimethylphenyl)-N2-[3-chloro-4-(N-methylamino)carbonylphenyl]-5-fluoro-N4-methyl-2,4-pyrimidinediamine]
< 10 | < 10 | < 10 | – | – | – | COC(=O)COc1ccc(Nc2nc(Nc3cc(C)cc(C)c3)ncc2F)cc1Cl [Compound 614, N4-[3-Chloro-4-(methoxycarbonyl)methyleneoxyphenyl]-N2-(3,5-dimethylphenyl)-5-fluoro-2,4-pyrimidinediamine]
< 10 | < 10 | < 10 | – | – | – | COC(=O)COc1ccc(Nc2nc(Nc3cc(OC)cc(OC)c3)ncc2F)cc1Cl [Compound 615, N4-[3-Chloro-4-(methoxycarbonyl)methyleneoxyphenyl]-N2-(3,5-dimethoxyphenyl)-5-fluoro-2,4-pyrimidinediamine]
< 10 | < 10 | < 10 | – | – | – | COC(=O)COc1ccc(Nc2nc(Nc3ccc(OC)c(Cl)c3)ncc2F)cc1Cl [Compound 616, N4-[3-Chloro-4-(methoxycarbonyl)methyleneoxyphenyl]-N2-(3-chloro-4-methoxyphenyl)-5-fluoro-2,4-pyrimidinediamine]
< 10 | < 10 | < 10 | – | – | – | COC(=O)COc1ccc(Nc2nc(Nc3cc(C)c(Cl)c(C)c3)ncc2F)cc1Cl [Compound 617, N2-(4-Chloro-3,5-dimethylphenyl)-N4-[3-chloro-4-(methoxycarbonyl)methyleneoxyphenyl]-5-fluoro-2,4-pyrimidinediamine]
> 10 | < 10 | < 10 | – | – | – | COC(=O)COc1ccc(Nc2nc(Nc3ccc4[nH]ccc4c3)ncc2F)cc1Cl [Compound 618, N4-[3-Chloro-4-(methoxycarbonyl)methyleneoxyphenyl]-5-fluoro-N2-(indol-5-yl)-2,4-pyrimidinediamine]
< 10 | < 10 | < 10 | – | – | – | Cc1cc(C)cc(Nc2ncc(F)c(Nc3ccc(OCCO)c(Cl)c3)n2)c1 [Compound 619, N4-[3-Chloro-4-(2-hydroxyethyleneoxy)phenyl]-N2-(3,5-dimethylphenyl)-5-fluoro-2,4-pyrimidinediamine]
< 10 | < 10 | < 10 | – | – | – | COc1cc(Nc2ncc(F)c(Nc3ccc(OCCO)c(Cl)c3)n2)cc(OC)c1 [Compound 620, N4-[3-Chloro-4-(2-hydroxyethyleneoxy)phenyl]-N2-(3,5-dimethoxyphenyl)-5-fluoro-2,4-pyrimidinediamine]
> 10 | < 10 | < 10 | – | – | – | COc1ccc(Nc2ncc(F)c(Nc3ccc(OCCO)c(Cl)c3)n2)cc1Cl [Compound 621, N4-[3-Chloro-4-(2-hydroxyethyleneoxy)phenyl]-N2-(3-chloro-4-methoxyphenyl)-5-fluoro-2,4-pyrimidinediamine]
> 10 | < 10 | < 10 | – | – | – | Cc1cc(Nc2ncc(F)c(Nc3ccc(OCCO)c(Cl)c3)n2)cc(C)c1Cl [Compound 622, N2-(4-Chloro-3,5-dimethylphenyl)-N4-[3-chloro-4-(2-hydroxyethyleneoxy)phenyl]-5-fluoro-2,4-pyrimidinediamine]
< 10 | < 10 | < 10 | – | – | – | OCCOc1ccc(Nc2nc(Nc3ccc4[nH]ccc4c3)ncc2F)cc1Cl [Compound 623, N4-[3-Chloro-4-(2-hydroxyethyleneoxy)phenyl]-5-fluoro-N2-(indol-5-yl)-2,4-pyrimidinediamine]
> 10 | < 10 | < 10 | – | – | – | COc1cc(Nc2ncc(F)c(Nc3ccc(OCCO)c(Cl)c3)n2)ccc1Cl [Compound 624, N4-[3-Chloro-4-(2-hydroxyethyleneoxy)phenyl]-N2-(4-chloro-3-methoxyphenyl)-5-fluoro-2,4-pyrimidinediamine]
